{
  "source": "paper PMC9817970",
  "about": "(Cancers, 2022)",
  "assay_in_all_cases": "Kinase panel profiling",
  "type_in_all_cases": "biochemical",
  "details_in_all_cases": "10 μM ATP",
  "key": {"LATS1": {"target": "T1, LATS1 (Homo sapiens, UniProt O95835)", "T1 construct": "purchased Reaction Biology Corp", "method": "(§1) Kinase panel profiling was conducted by Reaction Biology Corp. (San Diego, CA, USA). A single dose (1.0 μM) of 6r was tested against 371 recombinant human kinases in the presence of 10 μM ATP."}, "EPHA3": {"target": "T2, EPHA3 (Homo sapiens, UniProt P29320)", "T2 construct": "purchased Reaction Biology Corp", "method": "as §1"}, "KSR2": {"target": "T3, KSR2 (Homo sapiens, UniProt Q6VAB6)", "T3 construct": "purchased Reaction Biology Corp", "method": "as §1"}, "MKK7": {"target": "T4, MKK7 (Homo sapiens, UniProt O14733)", "T4 construct": "purchased Reaction Biology Corp", "method": "as §1"}, "NEK11": {"target": "T5, NEK11 (Homo sapiens, UniProt Q8NG66)", "T5 construct": "purchased Reaction Biology Corp", "method": "as §1"}, "PKG2/PRKG2": {"target": "T6, PKG2/PRKG2 (Homo sapiens, UniProt Q13237)", "T6 construct": "purchased Reaction Biology Corp", "method": "as §1"}, "c-MER": {"target": "T7, c-MER (Homo sapiens, UniProt Q12866)", "T7 construct": "purchased Reaction Biology Corp", "T7 sequence (Q12866 21-999)": "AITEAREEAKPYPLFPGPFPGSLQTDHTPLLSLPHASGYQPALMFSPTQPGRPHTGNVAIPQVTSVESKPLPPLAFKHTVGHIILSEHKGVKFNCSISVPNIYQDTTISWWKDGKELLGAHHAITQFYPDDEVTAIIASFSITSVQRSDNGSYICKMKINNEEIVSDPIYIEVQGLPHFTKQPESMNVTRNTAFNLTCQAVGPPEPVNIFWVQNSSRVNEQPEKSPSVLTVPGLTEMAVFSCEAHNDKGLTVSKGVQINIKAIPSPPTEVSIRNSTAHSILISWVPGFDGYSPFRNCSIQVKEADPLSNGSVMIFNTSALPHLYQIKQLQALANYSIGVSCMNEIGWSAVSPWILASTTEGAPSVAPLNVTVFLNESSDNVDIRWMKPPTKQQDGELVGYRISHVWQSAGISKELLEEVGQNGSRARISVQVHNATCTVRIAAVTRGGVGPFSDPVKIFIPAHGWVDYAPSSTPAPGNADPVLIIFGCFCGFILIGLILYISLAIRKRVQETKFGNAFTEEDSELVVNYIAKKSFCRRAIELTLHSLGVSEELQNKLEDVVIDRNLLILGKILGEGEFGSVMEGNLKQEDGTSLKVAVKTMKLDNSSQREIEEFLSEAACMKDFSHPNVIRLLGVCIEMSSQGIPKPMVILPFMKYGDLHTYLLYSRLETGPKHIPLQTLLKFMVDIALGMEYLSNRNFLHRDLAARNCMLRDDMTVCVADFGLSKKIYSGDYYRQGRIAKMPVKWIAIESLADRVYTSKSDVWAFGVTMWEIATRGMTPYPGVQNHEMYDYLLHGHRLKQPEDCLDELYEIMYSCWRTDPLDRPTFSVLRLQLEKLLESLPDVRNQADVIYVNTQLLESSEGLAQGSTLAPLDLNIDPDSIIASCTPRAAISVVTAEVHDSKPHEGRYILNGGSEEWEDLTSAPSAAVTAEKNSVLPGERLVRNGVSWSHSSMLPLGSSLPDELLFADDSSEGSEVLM", "method": "as §1"}, "PHKg2": {"target": "T8, PHKg2 (Homo sapiens, UniProt P15735)", "T8 construct": "purchased Reaction Biology Corp", "T8 sequence (P15735 whole entry)": "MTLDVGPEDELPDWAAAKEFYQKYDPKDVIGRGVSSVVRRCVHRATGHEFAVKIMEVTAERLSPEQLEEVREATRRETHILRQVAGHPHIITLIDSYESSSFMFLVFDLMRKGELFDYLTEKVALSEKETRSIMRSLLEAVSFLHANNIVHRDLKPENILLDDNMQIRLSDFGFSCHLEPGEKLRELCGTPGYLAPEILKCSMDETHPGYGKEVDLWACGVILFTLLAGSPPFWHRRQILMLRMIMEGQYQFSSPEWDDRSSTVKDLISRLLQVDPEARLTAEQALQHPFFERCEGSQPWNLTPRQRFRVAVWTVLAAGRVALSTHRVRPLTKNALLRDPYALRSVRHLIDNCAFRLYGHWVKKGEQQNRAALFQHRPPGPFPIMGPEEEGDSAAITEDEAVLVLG", "method": "as §1"}, "TTBK2": {"target": "T9, TTBK2 (Homo sapiens, UniProt Q6IQ55)", "T9 construct": "purchased Reaction Biology Corp", "method": "as §1"}, "NEK5": {"target": "T10, NEK5 (Homo sapiens, UniProt Q6P3R8)", "T10 construct": "purchased Reaction Biology Corp", "method": "as §1"}, "MST1/STK4": {"target": "T11, MST1/STK4 (Homo sapiens, UniProt Q13043)", "T11 construct": "purchased Reaction Biology Corp", "method": "as §1"}, "AKT3": {"target": "T12, AKT3 (Homo sapiens, UniProt Q9Y243)", "T12 construct": "purchased Reaction Biology Corp", "method": "as §1"}, "NEK7": {"target": "T13, NEK7 (Homo sapiens, UniProt Q8TDX7)", "T13 construct": "purchased Reaction Biology Corp", "T13 sequence (Q8TDX7 whole entry)": "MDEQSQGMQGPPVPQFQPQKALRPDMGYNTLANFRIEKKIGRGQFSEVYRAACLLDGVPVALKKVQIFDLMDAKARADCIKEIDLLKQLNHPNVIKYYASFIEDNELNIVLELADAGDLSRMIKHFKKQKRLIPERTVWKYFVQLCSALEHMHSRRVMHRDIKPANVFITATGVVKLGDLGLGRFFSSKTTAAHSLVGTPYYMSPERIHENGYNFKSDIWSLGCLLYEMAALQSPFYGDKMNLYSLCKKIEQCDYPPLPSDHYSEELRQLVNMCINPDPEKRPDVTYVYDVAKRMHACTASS", "method": "as §1"}, "ULK2": {"target": "T14, ULK2 (Homo sapiens, UniProt Q8IYT8)", "T14 construct": "purchased Reaction Biology Corp", "T14 sequence (Q8IYT8 whole entry)": "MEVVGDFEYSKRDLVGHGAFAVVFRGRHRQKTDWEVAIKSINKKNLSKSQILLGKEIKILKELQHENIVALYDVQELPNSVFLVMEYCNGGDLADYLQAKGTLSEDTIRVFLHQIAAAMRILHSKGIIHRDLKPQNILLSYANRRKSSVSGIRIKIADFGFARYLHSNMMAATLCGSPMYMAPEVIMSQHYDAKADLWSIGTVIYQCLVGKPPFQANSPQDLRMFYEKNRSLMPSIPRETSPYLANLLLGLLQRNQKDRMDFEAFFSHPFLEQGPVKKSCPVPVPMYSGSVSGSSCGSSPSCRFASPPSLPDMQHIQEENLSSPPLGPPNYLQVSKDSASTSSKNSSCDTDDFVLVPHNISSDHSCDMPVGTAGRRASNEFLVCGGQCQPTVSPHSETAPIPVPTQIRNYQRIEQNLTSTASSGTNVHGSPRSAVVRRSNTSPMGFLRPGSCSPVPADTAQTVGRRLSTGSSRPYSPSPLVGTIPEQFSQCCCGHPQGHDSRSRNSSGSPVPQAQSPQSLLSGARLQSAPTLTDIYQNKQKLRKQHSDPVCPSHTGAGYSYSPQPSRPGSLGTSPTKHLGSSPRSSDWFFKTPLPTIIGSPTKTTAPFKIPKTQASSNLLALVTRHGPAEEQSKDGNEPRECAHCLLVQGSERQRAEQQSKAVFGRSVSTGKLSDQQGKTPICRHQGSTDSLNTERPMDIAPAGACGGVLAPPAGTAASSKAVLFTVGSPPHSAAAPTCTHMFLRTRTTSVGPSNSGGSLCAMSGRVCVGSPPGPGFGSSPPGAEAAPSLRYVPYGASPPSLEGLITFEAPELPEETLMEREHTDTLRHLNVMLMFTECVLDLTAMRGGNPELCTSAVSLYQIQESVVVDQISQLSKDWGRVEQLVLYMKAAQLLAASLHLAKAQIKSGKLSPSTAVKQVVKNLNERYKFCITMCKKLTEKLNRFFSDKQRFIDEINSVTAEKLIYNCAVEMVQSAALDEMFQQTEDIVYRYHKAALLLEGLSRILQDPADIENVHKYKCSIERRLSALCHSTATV", "method": "as §1"}, "WNK1": {"target": "T15, WNK1 (Homo sapiens, UniProt Q9H4A3)", "T15 construct": "purchased Reaction Biology Corp", "method": "as §1"}, "p70S6K/RPS6KB1": {"target": "T16, p70S6K/RPS6KB1 (Homo sapiens, UniProt P23443)", "T16 construct": "purchased Reaction Biology Corp", "method": "as §1"}, "FGFR3": {"target": "T17, FGFR3 (Homo sapiens, UniProt P22607)", "T17 construct": "purchased Reaction Biology Corp", "method": "as §1"}, "MNK1": {"target": "T18, MNK1 (Homo sapiens, UniProt Q9BUB5)", "T18 construct": "purchased Reaction Biology Corp", "method": "as §1"}, "RSK4": {"target": "T19, RSK4 (Homo sapiens, UniProt Q9UK32)", "T19 construct": "purchased Reaction Biology Corp", "method": "as §1"}, "STK22D/TSSK1": {"target": "T20, STK22D/TSSK1 (Homo sapiens, UniProt Q9BXA7)", "T20 construct": "purchased Reaction Biology Corp", "T20 sequence (Q9BXA7 whole entry)": "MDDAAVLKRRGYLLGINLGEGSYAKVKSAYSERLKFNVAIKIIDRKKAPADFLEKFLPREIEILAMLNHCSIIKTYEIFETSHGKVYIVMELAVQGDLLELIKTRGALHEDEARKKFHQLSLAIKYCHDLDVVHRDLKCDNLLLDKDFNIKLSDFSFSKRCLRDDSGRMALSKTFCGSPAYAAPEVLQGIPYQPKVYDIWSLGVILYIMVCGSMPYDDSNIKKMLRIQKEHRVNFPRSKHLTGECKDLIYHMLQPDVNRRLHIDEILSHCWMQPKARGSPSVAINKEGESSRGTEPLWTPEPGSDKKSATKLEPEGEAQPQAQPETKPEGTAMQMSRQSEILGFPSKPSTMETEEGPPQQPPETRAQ", "method": "as §1"}, "PRKX": {"target": "T21, PRKX (Homo sapiens, UniProt P51817)", "T21 construct": "purchased Reaction Biology Corp", "method": "as §1"}, "ERN2/IRE2": {"target": "T22, ERN2/IRE2 (Homo sapiens, UniProt Q76MJ5)", "T22 construct": "purchased Reaction Biology Corp", "method": "as §1"}, "CK1G3": {"target": "T23, CK1G3 (Homo sapiens, UniProt Q9Y6M4)", "T23 construct": "purchased Reaction Biology Corp", "method": "as §1"}, "VRK2": {"target": "T24, VRK2 (Homo sapiens, UniProt Q86Y07)", "T24 construct": "purchased Reaction Biology Corp", "method": "as §1"}, "CAMKK2": {"target": "T25, CAMKK2 (Homo sapiens, UniProt Q96RR4)", "T25 construct": "purchased Reaction Biology Corp", "T25 sequence (Q96RR4 whole entry)": "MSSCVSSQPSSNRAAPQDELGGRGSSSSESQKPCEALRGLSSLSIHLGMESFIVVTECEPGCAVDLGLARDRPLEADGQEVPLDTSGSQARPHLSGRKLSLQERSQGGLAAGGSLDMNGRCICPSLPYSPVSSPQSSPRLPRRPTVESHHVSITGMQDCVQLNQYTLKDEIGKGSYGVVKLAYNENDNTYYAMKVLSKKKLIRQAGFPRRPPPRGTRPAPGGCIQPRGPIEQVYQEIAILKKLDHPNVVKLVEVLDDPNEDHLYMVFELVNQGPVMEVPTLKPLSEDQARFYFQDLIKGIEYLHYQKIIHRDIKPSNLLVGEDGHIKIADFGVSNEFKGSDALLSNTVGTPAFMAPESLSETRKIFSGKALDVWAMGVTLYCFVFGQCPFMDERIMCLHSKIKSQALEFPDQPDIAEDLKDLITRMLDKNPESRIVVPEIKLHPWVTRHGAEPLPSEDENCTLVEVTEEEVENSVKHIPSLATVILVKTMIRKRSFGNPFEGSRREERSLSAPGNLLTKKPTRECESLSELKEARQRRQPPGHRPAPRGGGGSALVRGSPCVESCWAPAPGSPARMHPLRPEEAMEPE", "method": "as §1"}, "SLK/STK2": {"target": "T26, SLK/STK2 (Homo sapiens, UniProt Q9H2G2)", "T26 construct": "purchased Reaction Biology Corp", "method": "as §1"}, "IRAK4": {"target": "T27, IRAK4 (Homo sapiens, UniProt Q9NWZ3)", "T27 construct": "purchased Reaction Biology Corp", "method": "as §1"}, "CDK1/cyclin A": {"target": "T28, CDK1/cyclin A (Homo sapiens, UniProt P06493)", "T28 construct": "purchased Reaction Biology Corp", "method": "as §1"}, "MAPKAPK2": {"target": "T29, MAPKAPK2 (Homo sapiens, UniProt P49137)", "T29 construct": "purchased Reaction Biology Corp", "method": "as §1"}, "FGR": {"target": "T30, FGR (Homo sapiens, UniProt P09769)", "T30 construct": "purchased Reaction Biology Corp", "method": "as §1"}, "TYK2": {"target": "T31, TYK2 (Homo sapiens, UniProt P29597)", "T31 construct": "purchased Reaction Biology Corp", "method": "as §1"}, "STK39/STLK3": {"target": "T32, STK39/STLK3 (Homo sapiens, UniProt Q9UEW8)", "T32 construct": "purchased Reaction Biology Corp", "method": "as §1"}, "ERK5/MAPK7": {"target": "T33, ERK5/MAPK7 (Homo sapiens, UniProt Q13164)", "T33 construct": "purchased Reaction Biology Corp", "method": "as §1"}, "ROCK2": {"target": "T34, ROCK2 (Homo sapiens, UniProt O75116)", "T34 construct": "purchased Reaction Biology Corp", "T34 sequence (O75116 whole entry)": "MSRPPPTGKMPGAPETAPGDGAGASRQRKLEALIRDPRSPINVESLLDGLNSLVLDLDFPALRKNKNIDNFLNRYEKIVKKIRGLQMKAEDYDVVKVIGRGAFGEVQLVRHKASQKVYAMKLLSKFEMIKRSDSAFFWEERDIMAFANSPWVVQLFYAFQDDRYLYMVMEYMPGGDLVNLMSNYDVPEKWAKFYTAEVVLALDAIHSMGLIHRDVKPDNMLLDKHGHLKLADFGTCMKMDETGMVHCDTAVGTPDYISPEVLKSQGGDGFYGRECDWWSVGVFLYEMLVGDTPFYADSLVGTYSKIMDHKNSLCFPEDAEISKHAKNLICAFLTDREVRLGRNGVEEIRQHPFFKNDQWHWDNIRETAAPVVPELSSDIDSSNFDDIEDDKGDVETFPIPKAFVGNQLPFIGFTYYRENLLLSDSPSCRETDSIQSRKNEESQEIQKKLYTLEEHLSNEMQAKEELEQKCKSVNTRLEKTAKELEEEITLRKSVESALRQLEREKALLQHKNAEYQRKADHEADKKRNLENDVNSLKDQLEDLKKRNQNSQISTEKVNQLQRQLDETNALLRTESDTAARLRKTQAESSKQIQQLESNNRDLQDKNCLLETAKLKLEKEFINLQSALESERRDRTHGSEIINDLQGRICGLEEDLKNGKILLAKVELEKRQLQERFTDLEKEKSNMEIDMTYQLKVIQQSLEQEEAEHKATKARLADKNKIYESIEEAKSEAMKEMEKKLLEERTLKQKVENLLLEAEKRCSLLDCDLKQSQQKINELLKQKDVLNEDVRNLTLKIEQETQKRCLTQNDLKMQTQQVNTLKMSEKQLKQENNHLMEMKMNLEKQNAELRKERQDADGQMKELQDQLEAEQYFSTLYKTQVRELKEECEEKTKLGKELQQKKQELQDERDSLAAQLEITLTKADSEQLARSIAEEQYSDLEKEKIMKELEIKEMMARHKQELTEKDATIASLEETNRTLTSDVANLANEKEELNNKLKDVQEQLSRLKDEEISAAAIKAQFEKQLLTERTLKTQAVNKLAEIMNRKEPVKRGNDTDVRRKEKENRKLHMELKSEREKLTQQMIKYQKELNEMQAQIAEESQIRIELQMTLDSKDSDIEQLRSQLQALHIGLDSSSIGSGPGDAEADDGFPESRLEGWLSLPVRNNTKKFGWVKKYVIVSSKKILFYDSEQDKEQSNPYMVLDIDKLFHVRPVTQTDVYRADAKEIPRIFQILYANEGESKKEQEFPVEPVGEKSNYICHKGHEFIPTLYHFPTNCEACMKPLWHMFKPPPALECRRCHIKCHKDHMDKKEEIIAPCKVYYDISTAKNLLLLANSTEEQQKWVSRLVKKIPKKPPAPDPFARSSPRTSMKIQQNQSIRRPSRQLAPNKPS", "method": "as §1"}, "CDK3/cyclin E": {"target": "T35, CDK3/cyclin E (Homo sapiens, UniProt Q00526)", "T35 construct": "purchased Reaction Biology Corp", "method": "as §1"}, "GLK/MAP4K3": {"target": "T36, GLK/MAP4K3 (Homo sapiens, UniProt Q8IVH8)", "T36 construct": "purchased Reaction Biology Corp", "method": "as §1"}, "PKCb2": {"target": "T37, PKCb2 (Homo sapiens, UniProt P05771)", "T37 construct": "purchased Reaction Biology Corp", "method": "as §1"}, "CHK2": {"target": "T38, CHK2 (Homo sapiens, UniProt O96017)", "T38 construct": "purchased Reaction Biology Corp", "method": "as §1"}, "NEK9": {"target": "T39, NEK9 (Homo sapiens, UniProt Q8TD19)", "T39 construct": "purchased Reaction Biology Corp", "method": "as §1"}, "SNRK": {"target": "T40, SNRK (Homo sapiens, UniProt Q9NRH2)", "T40 construct": "purchased Reaction Biology Corp", "method": "as §1"}, "MKK6": {"target": "T41, MKK6 (Homo sapiens, UniProt P52564)", "T41 construct": "purchased Reaction Biology Corp", "method": "as §1"}, "SRMS": {"target": "T42, SRMS (Homo sapiens, UniProt Q9H3Y6)", "T42 construct": "purchased Reaction Biology Corp", "method": "as §1"}, "GRK5": {"target": "T43, GRK5 (Homo sapiens, UniProt P34947)", "T43 construct": "purchased Reaction Biology Corp", "method": "as §1"}},
  "data": [
    {"smiles": "Cc1ccc(NC(=O)c2ccc(CN3CCN(C)CC3)c(C(F)(F)F)c2)cc1-c1cnc2sc(N)nc2c1", "note": "[6r]", "values": [
      {"measurement": "inhibition at 1 µM", "setting": "LATS1", "value": 1.5, "unit": "%"},
      {"measurement": "inhibition at 1 µM", "setting": "EPHA3", "value": 41.1, "unit": "%"},
      {"measurement": "inhibition at 1 µM", "setting": "KSR2", "value": 0, "unit": "%"},
      {"measurement": "inhibition at 1 µM", "setting": "MKK7", "value": 7.3, "unit": "%"},
      {"measurement": "inhibition at 1 µM", "setting": "NEK11", "value": 18.3, "unit": "%"},
      {"measurement": "inhibition at 1 µM", "setting": "PKG2/PRKG2", "value": 9.1, "unit": "%"},
      {"measurement": "inhibition at 1 µM", "setting": "c-MER", "value": 6.1, "unit": "%"},
      {"measurement": "inhibition at 1 µM", "setting": "PHKg2", "value": 5, "unit": "%"},
      {"measurement": "inhibition at 1 µM", "setting": "TTBK2", "value": 23.2, "unit": "%"},
      {"measurement": "inhibition at 1 µM", "setting": "NEK5", "value": 0, "unit": "%"},
      {"measurement": "inhibition at 1 µM", "setting": "MST1/STK4", "value": 4.3, "unit": "%"},
      {"measurement": "inhibition at 1 µM", "setting": "AKT3", "value": 13.6, "unit": "%"},
      {"measurement": "inhibition at 1 µM", "setting": "NEK7", "value": 5.4, "unit": "%"},
      {"measurement": "inhibition at 1 µM", "setting": "ULK2", "value": 0, "unit": "%"},
      {"measurement": "inhibition at 1 µM", "setting": "WNK1", "value": 6.9, "unit": "%"},
      {"measurement": "inhibition at 1 µM", "setting": "p70S6K/RPS6KB1", "value": 8.4, "unit": "%"},
      {"measurement": "inhibition at 1 µM", "setting": "FGFR3", "value": 0, "unit": "%"},
      {"measurement": "inhibition at 1 µM", "setting": "MNK1", "value": 0, "unit": "%"},
      {"measurement": "inhibition at 1 µM", "setting": "RSK4", "value": 1.8, "unit": "%"},
      {"measurement": "inhibition at 1 µM", "setting": "STK22D/TSSK1", "value": 14.9, "unit": "%"},
      {"measurement": "inhibition at 1 µM", "setting": "PRKX", "value": 12.8, "unit": "%"},
      {"measurement": "inhibition at 1 µM", "setting": "ERN2/IRE2", "value": 12.9, "unit": "%"},
      {"measurement": "inhibition at 1 µM", "setting": "CK1G3", "value": 32, "unit": "%"},
      {"measurement": "inhibition at 1 µM", "setting": "VRK2", "value": 20.1, "unit": "%"},
      {"measurement": "inhibition at 1 µM", "setting": "CAMKK2", "value": 20.5, "unit": "%"},
      {"measurement": "inhibition at 1 µM", "setting": "SLK/STK2", "value": 37.8, "unit": "%"},
      {"measurement": "inhibition at 1 µM", "setting": "IRAK4", "value": 0, "unit": "%"},
      {"measurement": "inhibition at 1 µM", "setting": "CDK1/cyclin A", "value": 3.8, "unit": "%"},
      {"measurement": "inhibition at 1 µM", "setting": "MAPKAPK2", "value": 12.5, "unit": "%"},
      {"measurement": "inhibition at 1 µM", "setting": "FGR", "value": 87.7, "unit": "%"},
      {"measurement": "inhibition at 1 µM", "setting": "TYK2", "value": 7.8, "unit": "%"},
      {"measurement": "inhibition at 1 µM", "setting": "STK39/STLK3", "value": 19.2, "unit": "%"},
      {"measurement": "inhibition at 1 µM", "setting": "ERK5/MAPK7", "value": 6.5, "unit": "%"},
      {"measurement": "inhibition at 1 µM", "setting": "ROCK2", "value": 0.6, "unit": "%"},
      {"measurement": "inhibition at 1 µM", "setting": "CDK3/cyclin E", "value": 14.3, "unit": "%"},
      {"measurement": "inhibition at 1 µM", "setting": "GLK/MAP4K3", "value": 15, "unit": "%"},
      {"measurement": "inhibition at 1 µM", "setting": "PKCb2", "value": 12.7, "unit": "%"},
      {"measurement": "inhibition at 1 µM", "setting": "CHK2", "value": 4.8, "unit": "%"},
      {"measurement": "inhibition at 1 µM", "setting": "NEK9", "value": 0, "unit": "%"},
      {"measurement": "inhibition at 1 µM", "setting": "SNRK", "value": 0, "unit": "%"},
      {"measurement": "inhibition at 1 µM", "setting": "MKK6", "value": 6.6, "unit": "%"},
      {"measurement": "inhibition at 1 µM", "setting": "SRMS", "value": 9.2, "unit": "%"},
      {"measurement": "inhibition at 1 µM", "setting": "GRK5", "value": 5.8, "unit": "%"}
    ]}
  ]
}
